The record followed here is patent US10202339B2, “Therapeutic compounds and compositions” (AGIOS PHARMACEUTICALS, INC., priority 2012, dated 2019).

Chain of IDH2 R140Q (P48735 40-452 R140Q): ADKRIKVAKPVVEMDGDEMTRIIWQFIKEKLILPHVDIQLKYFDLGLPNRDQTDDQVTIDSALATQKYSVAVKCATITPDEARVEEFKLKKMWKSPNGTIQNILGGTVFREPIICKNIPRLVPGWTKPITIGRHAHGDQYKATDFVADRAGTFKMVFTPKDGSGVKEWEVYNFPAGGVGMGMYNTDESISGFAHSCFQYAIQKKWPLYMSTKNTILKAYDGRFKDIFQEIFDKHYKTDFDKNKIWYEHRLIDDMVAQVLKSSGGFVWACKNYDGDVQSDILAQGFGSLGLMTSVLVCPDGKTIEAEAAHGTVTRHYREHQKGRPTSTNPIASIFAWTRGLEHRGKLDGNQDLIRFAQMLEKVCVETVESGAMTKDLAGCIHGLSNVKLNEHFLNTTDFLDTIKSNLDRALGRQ

For the test, the target named is IDH2 R140Q (Homo sapiens (Human), UniProt P48735, R140Q). The test is described as follows: IDH2 R140Q enzymatic cofactor depletion assay (diaphorase/resazurin). As to conditions: IDH2 R140Q enzyme, one hour preincubation with compound, one hour reaction; read-out: Enz R140Q. It counts as biochemical. An outline of the steps:
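Enzyme preincubated with compound 1 h at room temperature, then reaction started with 50 μM NADPH and 6.3 mM α-KG and run 1 h at room temperature. Remaining NADPH measured by diaphorase (36 μg/ml)/resazurin (60 μM) stop mix, fluorescence read at Ex544/Em590 after 1 min.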
(Alamar Blue is a resazurin reagent that responds to reducing activity.)
Regarding `O=C(Nc1cccc(C(F)(F)F)c1)Nc1cc(S(=O)(=O)NCCO)ccc1-c1ccsc1` [Compound 120, N-(2-hydroxyethyl)-4-(thiophen-3-yl)-3-(3-(3-(trifluoromethyl)phenyl)ureido)benzenesulfonamide], the IC50 lay within 100 to 1000 nM. The result for `COCCNS(=O)(=O)c1ccc(-c2ccsc2)c(NC(=O)Nc2cccc(C(F)(F)F)c2)c1` [Compound 121, N-(2-methoxyethyl)-4-(thiophen-3-yl)-3-(3-(3-(trifluoromethyl)phenyl)ureido)benzenesulfonamide] reads 100 to 1000 nM. The result for `COCCCNS(=O)(=O)c1ccc(-c2ccsc2)c(NC(=O)Nc2cccc(C(F)(F)F)c2)c1` [Compound 122, N-(3-methoxypropyl)-4-(thiophen-3-yl)-3-(3-(3-(trifluoromethyl)phenyl)ureido)benzenesulfonamide] reads 100 to 1000 nM. As to `CC(C)C(CO)NS(=O)(=O)c1ccc(-c2ccsc2)c(NC(=O)Nc2cccc(C(F)(F)F)c2)c1` (centres unmarked) [Compound 123, N-(1-hydroxy-3-methylbutan-2-yl)-4-(thiophen-3-yl)-3-(3-(3-(trifluoromethyl)phenyl)ureido)benzene sulfonamide], the IC50 was in the range of 100 to 1000 nM. The result for `O=C(Nc1cccc(C(F)(F)F)c1)Nc1cc(S(=O)(=O)NC2CCC2)ccc1-c1ccsc1` [Compound 125, N-cyclobutyl-4-(thiophen-3-yl)-3-(3-(3-(trifluoromethyl)phenyl)ureido)benzenesulfonamide] reads 100 to 1000 nM; that for `O=C(Nc1cccc(C(F)(F)F)c1)Nc1cc(S(=O)(=O)NC2CCCC2)ccc1-c1ccsc1` [Compound 126, N-cyclopentyl-4-(thiophen-3-yl)-3-(3-(3-(trifluoromethyl)phenyl)ureido)benzenesulfonamide], 100 to 1000 nM.

With `O=C(Nc1cccc(C(F)(F)F)c1)Nc1cc(S(=O)(=O)NCC2CC2)ccc1-c1ccsc1` [Compound 127, N-(cyclopropylmethyl)-4-(thiophen-3-yl)-3-(3-(3-(trifluoromethyl)phenyl)ureido)benzenesulfonamide], the IC50 is 100 to 1000 nM. In the case of `O=C(Nc1cccc(C(F)(F)F)c1)Nc1cc(S(=O)(=O)NCC2CCC2)ccc1-c1ccsc1` [Compound 128, N-(cyclobutylmethyl)-4-(thiophen-3-yl)-3-(3-(3-(trifluoromethyl)phenyl)ureido)benzenesulfonamide], the IC50 was 100 to 1000 nM. Take `O=C(Nc1cccc(C(F)(F)F)c1)Nc1cc(S(=O)(=O)NCC2CCCC2)ccc1-c1ccsc1` [Compound 129, N-(cyclopentylmethyl)-4-(thiophen-3-yl)-3-(3-(3-(trifluoromethyl)phenyl)ureido)benzenesulfonamide]: the IC50 was 100 to 1000 nM.

As for `O=C(Nc1cccc(C(F)(F)F)c1)Nc1cc(S(=O)(=O)NCC(F)(F)F)ccc1-c1ccsc1` [Compound 130, 4-(thiophen-3-yl)-N-(2,2,2-trifluoroethyl)-3-(3-(3-(trifluoromethyl)phenyl)ureido)benzenesulfonamide], the IC50 lay in the range of 100 to 1000 nM. The result for `O=C(Nc1cccc(C(F)(F)F)c1)Nc1cc(S(=O)(=O)N2CCOCC2)ccc1-c1ccsc1` [Compound 131, 1-(5-(morpholinosulfonyl)-2-(thiophen-3-yl)phenyl)-3-(3-(trifluoromethyl)phenyl)urea] reads 100 to 1000 nM; that for `O=C(Nc1cccc(C(F)(F)F)c1)Nc1cc(S(=O)(=O)NC2CCOCC2)ccc1-c1ccsc1` [Compound 132, N-(tetrahydro-2H-pyran-4-yl)-4-(thiophen-3-yl)-3-(3-(3-(trifluoromethyl)phenyl)ureido)benzene sulfonamide], 100 to 1000 nM; that for `O=C(Nc1cccc(C(F)(F)F)c1)Nc1cc(S(=O)(=O)NCC2CCOCC2)ccc1-c1ccsc1` [Compound 133, N-((tetrahydro-2H-pyran-4-yl)methyl)-4-(thiophen-3-yl)-3-(3-(3-(trifluoromethyl)phenyl)ureido)benzene sulfonamide], 100 to 1000 nM. For `O=C(Nc1cccc(C(F)(F)F)c1)Nc1cc(S(=O)(=O)NC2CCSCC2)ccc1-c1ccsc1` [Compound 134, N-(tetrahydro-2H-thiopyran-4-yl)-4-(thiophen-3-yl)-3-(3-(3-(trifluoromethyl)phenyl)ureido)benzene sulfonamide] the value was 100 to 1000 nM.

Turning to `O=C(Nc1cccc(C(F)(F)F)c1)Nc1cc(S(=O)(=O)N2CCS(=O)(=O)CC2)ccc1-c1ccsc1` [Compound 135, 1-(5-((1,1-dioxidothiomorpholino)sulfonyl)-2-(thiophen-3-yl)phenyl)-3-(3-(trifluoromethyl)phenyl)urea], the IC50 lay within 100 to 1000 nM. In the case of `O=C(Nc1cccc(C(F)(F)F)c1)Nc1cc(S(=O)(=O)NCc2ccccc2)ccc1-c1ccsc1` [Compound 136, N-benzyl-4-(thiophen-3-yl)-3-(3-(3-(trifluoromethyl)phenyl)ureido)benzenesulfonamide], the IC50 lay within 100 to 1000 nM.

With `CN(C)S(=O)(=O)c1ccc(-c2ccsc2)c(NC(=O)Nc2cccc(C(F)(F)F)c2)c1` [Compound 137], the IC50 lay within 1000 to 10000 nM.

Regarding `CONS(=O)(=O)c1ccc(-c2ccsc2)c(NC(=O)Nc2cccc(C(F)(F)F)c2)c1` [Compound 138, N-methoxy-4-(thiophen-3-yl)-3-(3-(3-(trifluoromethyl)phenyl)ureido)benzenesulfonamide], the IC50 lay in the range of 100 to 1000 nM. For `CCONS(=O)(=O)c1ccc(-c2ccsc2)c(NC(=O)Nc2cccc(C(F)(F)F)c2)c1` [Compound 139, N-ethoxy-4-(thiophen-3-yl)-3-(3-(3-(trifluoromethyl)phenyl)ureido)benzenesulfonamide] the value was 100 to 1000 nM. In the case of `O=C(Nc1cccc(C(F)(F)F)c1)Nc1cc(S(=O)(=O)N2CCC2)ccc1-c1ccsc1` [Compound 140], the IC50 is 1000 to 10000 nM. Regarding `O=C(Nc1cccc(C(F)(F)F)c1)Nc1cc(S(=O)(=O)N2CCCC2)ccc1-c1ccsc1` [Compound 141], the IC50 lay within 1000 to 10000 nM. The result for `O=C(Nc1cccc(C(F)(F)F)c1)Nc1cc(S(=O)(=O)Nc2ccccc2O)ccc1-c1ccsc1` [Compound 142] reads above 10000 nM; that for `CN(c1ccccc1)S(=O)(=O)c1ccc(-c2ccsc2)c(NC(=O)Nc2cccc(C(F)(F)F)c2)c1` [Compound 143], 1000 to 10000 nM; that for `C[C@@H](NS(=O)(=O)c1ccc(-c2ccsc2)c(NC(=O)Nc2cccc(C(F)(F)F)c2)c1)c1ccccc1` [Compound 144], 1000 to 10000 nM. The result for `C[C@H](NS(=O)(=O)c1ccc(-c2ccsc2)c(NC(=O)Nc2cccc(C(F)(F)F)c2)c1)c1ccccc1` [Compound 145] reads 1000 to 10000 nM; that for `O=C(Nc1cccc(C(F)(F)F)c1)Nc1cc(S(=O)(=O)Nc2ccc(O)cc2)ccc1-c1ccsc1` [Compound 146, N-(4-hydroxyphenyl)-4-(thiophen-3-yl)-3-(3-(3-(trifluoromethyl)phenyl)ureido)benzenesulfonamide], 1000 to 10000 nM; that for `O=C(Nc1cccc(C(F)(F)F)c1)Nc1cc(S(=O)(=O)Nc2cccc(C(F)(F)F)c2)ccc1-c1ccsc1` [Compound 147], 1000 to 10000 nM. For `O=C(Nc1cccc(C(F)(F)F)c1)Nc1cc(S(=O)(=O)Nc2cc[nH]n2)ccc1-c1ccsc1` [Compound 148] the value was 1000 to 10000 nM; for `O=C(Nc1cccc(C(F)(F)F)c1)Nc1cc(S(=O)(=O)Nc2ccccn2)ccc1-c1ccsc1` [Compound 149], 1000 to 10000 nM.

Turning to `O=C(Nc1cccc(C(F)(F)F)c1)Nc1cc(S(=O)(=O)Nc2cccnc2)ccc1-c1ccsc1` [Compound 150], the IC50 lay within 1000 to 10000 nM. For the molecule `CC1(NS(=O)(=O)c2ccc(-c3ccsc3)c(NC(=O)Nc3cccc(C(F)(F)F)c3)c2)CC1` [Compound 151, N-(1-methylcyclopropyl)-4-(thiophen-3-yl)-3-(3-(3-(trifluoromethyl)phenyl)ureido)benzenesulfonamide], the IC50 lay in the range of 100 to 1000 nM.

Take `CC1CC1NS(=O)(=O)c1ccc(-c2ccsc2)c(NC(=O)Nc2cccc(C(F)(F)F)c2)c1` (centres unmarked) [Compound 152, N-(2-methylcyclopropyl)-4-(thiophen-3-yl)-3-(3-(3-(trifluoromethyl)phenyl)ureido)benzenesulfonamide]: the IC50 is 100 to 1000 nM. For the molecule `O=C(Nc1ccc(F)cc1)Nc1cc(S(=O)(=O)NCC2CC2)ccc1C1=CCOCC1` [Compound 153], the IC50 fell in the range of 1000 to 10000 nM.

As for `O=C(Nc1cccc(C(F)(F)F)c1)Nc1cc(S(=O)(=O)NCC2CC2)ccc1C1=CCOCC1` [Compound 154, N-(cyclopropylmethyl)-4-(3,6-dihydro-2H-pyran-4-yl)-3-(3-(3-(trifluoromethyl)phenyl)ureido)benzene sulfonamide], the IC50 was 100 to 1000 nM. The result for `O=C(Nc1ccc(F)c(Cl)c1)Nc1cc(S(=O)(=O)NCC2CC2)ccc1C1=CCOCC1` [Compound 155, 3-(3-(3-chloro-4-fluorophenyl)ureido)-N-(cyclopropylmethyl)-4-(3,6-dihydro-2H-pyran-4-yl)benzene sulfonamide] reads 100 to 1000 nM; that for `O=C(Nc1ccc(F)c(C(F)(F)F)c1)Nc1cc(S(=O)(=O)NCC2CC2)ccc1C1=CCOCC1` [Compound 156, N-(cyclopropylmethyl)-4-(3,6-dihydro-2H-pyran-4-yl)-3-(3-(4-fluoro-3-(trifluoromethyl)phenyl)ureido)benzenesulfonamide], 100 to 1000 nM. For `O=C(Nc1cccc(C(F)(F)F)c1)Nc1cc(S(=O)(=O)NCC(F)(F)F)ccc1C1=CCOCC1` [Compound 157, 4-(3,6-dihydro-2H-pyran-4-yl)-N-(2,2,2-trifluoroethyl)-3-(3-(3-(trifluoromethyl)phenyl)ureido)benzene sulfonamide] the value was 1000 to 10000 nM; for `O=C(Nc1ccc(F)c(Cl)c1)Nc1cc(S(=O)(=O)NCC(F)(F)F)ccc1C1=CCOCC1` [Compound 158, 3-(3-(3-chloro-4-fluorophenyl)ureido)-4-(3,6-dihydro-2H-pyran-4-yl)-N-(2,2,2-trifluoroethyl)benzene sulfonamide], 100 to 1000 nM.
